# In patent US20210309666A1, “SMALL MOLECULE MDM2 PROTEIN DEGRADERS” (THE REGENTS OF THE UNIVERSITY OF MICHIGAN, priority 2018, published 2021):
# Tested on: RS4;11 cells
# Experiment: Cell growth inhibition, 4-day proliferation assay (WST-8)
# Format: cell-based
# Details: Homo sapiens, 96 h; RS4;11 cells, 4 days, WST-8; read-out: RS4; 11 Cells IC50
# Protocol: The effect of representative Compounds of the Disclosure on cell viability was determined in a 4-day proliferation assay. Cells were maintained in the appropriate culture medium with 10% FBS at 37° C. and an atmosphere of 5% CO2. Also, the effect of a MDM2 inhibitor (Cpd. A; see Compound Example No. 22 of U.S. Pat. No. 8,629,141) and a known MDM2 degrader (Cpd. D, see Cpd. No. 175 of WO 2017/0176957) on cell viability in various cell lines is also included in Table 5. Cpd. […] A and D. The structure of Cpd. A is:
# Cells were seeded in 96-well flat bottom (Corning COSTAR, Corning, N.Y., cat #3595) at a density of 2,000-3,000 cells/well in 100 μL of culture medium. Compounds were serially diluted in the appropriate medium, and 100 μL of the diluted compounds were added to the appropriate wells of the cell plate. After the addition of compounds, the cells were incubated at 37° C. in an atmosphere of 5% CO2 for 4 days. Cell viability was determined using the WST (2-(2-methoxy-4-nitrophenyl)-3-(4-nitrophenyl)-5-(2,4-disulfophenyl)-2H-tetrazolium, monosodium salt) Cell Counting-8 Kit (Dojindo Molecular Technologies, Inc., Rockville, Md.) according to the manufacturers' instructions.
# WST-8 reagent was added to each well at a final concentration of 10% (v/v), and then the plates were incubated at 37° C. for 1-2 hours for color development. The absorbance was measured at 450 nm using a SPECTRAmax PLUS plate reader (Molecular Devices, Sunnyvale, Calif.). The readings were normalized to the DMSO-treated cells and the half maximal inhibitory concentration (IC50) was calculated by nonlinear regression (four parameters sigmoid fitted with variable slope, least squares fit, and no constraint) analysis using the GraphPad Prism 5 software (GraphPad Software, La Jolla, Calif.).
row,IC50 [nM],SMILES
1,2.4,"O=C1CCC(N2Cc3c(NC4CCN(CCCNC(=O)C56CCC(NC(=O)[C@@H]7NC8(CCCCC8)[C@@]8(C(=O)Nc9cc(Cl)ccc98)[C@H]7c7cccc(Cl)c7F)(CC5)CC6)CC4)cccc3C2=O)C(=O)N1 (stereo partly drawn) [Cpd. No. 1, (3′R,4′S,5′R)-6″-chloro-4′-(3-chloro-2-fluorophenyl)-N-(4-((3-(4-((2-(2,6-dioxopiperidin-3-yl)-1-oxoisoindolin-4-yl)amino)piperidin-1-yl)propyl)carbamoyl)bicyclo[2.2.2]octan-1-yl)-2″-oxodispiro[cyclohexane-1,2′-pyrrolidine-3′,3″-indoline]-5′-carboxamide]"
2,0.62,"CC(C)(C)C[C@@H]1N[C@@H](C(=O)N[C@H]2CC[C@H](C(=O)NCCCC#Cc3cccc4c3CN(C3CCC(=O)NC3=O)C4=O)CC2)[C@H](c2cccc(Cl)c2F)[C@]12C(=O)Nc1cc(Cl)ccc12 (stereo partly drawn) [Cpd. No. 3, (2′S,3R,4′S,5′R)-6-chloro-4′-(3-chloro-2-fluorophenyl)-N-((1r,4R)-4-((5-(2-(2,6-dioxopiperidin-3-yl)-1-oxoisoindolin-4-yl)pent-4-yn-1-yl)carbamoyl)cyclohexyl)-2′-neopentyl-2-oxospiro[indoline-3,3′-pyrrolidine]-5′-carboxamide]"
3,3.1,"O=C1CCC(N2Cc3c(C#CC4CCN(C(=O)CN5CCC(NC(=O)[C@@H]6NC7(CCCCC7)[C@@]7(C(=O)Nc8cc(Cl)ccc87)[C@H]6c6cccc(Cl)c6F)CC5)CC4)cccc3C2=O)C(=O)N1 (stereo partly drawn) [Cpd. No. 5, (3′R,4′S,5′R)-6″-chloro-4′-(3-chloro-2-fluorophenyl)-N-(1-(2-(4-((2-(2,6-dioxopiperidin-3-yl)-1-oxoisoindolin-4-yl)ethynyl)piperidin-1-yl)-2-oxoethyl)piperidin-4-yl)-2″-oxodispiro[cyclohexane-1,2′-pyrrolidine-3′,3″-indoline]-5′-carboxamide]"
4,> 100,"O=C1CCC(N2Cc3c(C#CC4CCN(C(=O)CN5CCN(C(=O)[C@@H]6NC7(CCCCC7)[C@@]7(C(=O)Nc8cc(Cl)ccc87)[C@H]6c6cccc(Cl)c6F)CC5)CC4)cccc3C2=O)C(=O)N1 (stereo partly drawn) [Cpd. No. 7, 3-(4-((1-(2-(4-((3′R,4′S,5′R)-6″-chloro-4′-(3-chloro-2-fluorophenyl)-2″-oxodispiro[cyclohexane-1,2′-pyrrolidine-3′,3″-indoline]-5′-carbonyl)piperazin-1-yl)acetyl)piperidin-4-yl)ethynyl)-1-oxoisoindolin-2-yl)piperidine-2,6-dione]"
5,4.5,"CC1(C)CCC2(CC1)N[C@@H](C(=O)NC1CCN(CC(=O)NCCCC#Cc3cccc4c3CN(C3CCC(=O)NC3=O)C4=O)CC1)[C@H](c1cccc(Cl)c1F)[C@]21C(=O)Nc2cc(Cl)ccc21 (stereo partly drawn) [Cpd. No. 8, (3′R,4′S,5′R)-6″-chloro-4′-(3-chloro-2-fluorophenyl)-N-(1-(2-((5-(2-(2,6-dioxopiperidin-3-yl)-1-oxoisoindolin-4-yl)pent-4-yn-1-yl)amino)-2-oxoethyl)piperidin-4-yl)-4,4-dimethyl-2″-oxodispiro[cyclohexane-1,2′-pyrrolidine-3′,3″-indoline]-5′-carboxamide]"
6,2.8,"CN1[C@@H](C(=O)N[C@H]2CC[C@H](C(=O)N3CCC(C#Cc4cccc5c4CN(C4CCC(=O)NC4=O)C5=O)CC3)CC2)[C@H](c2cccc(Cl)c2F)[C@]2(C(=O)Nc3cc(Cl)ccc32)C12CCCCC2 (stereo partly drawn) [Cpd. No. 9, (3′R,4′S,5′R)-6″-chloro-4′-(3-chloro-2-fluorophenyl)-N-((1r,4R)-4-(4-((2-(2,6-dioxopiperidin-3-yl)-1-oxoisoindolin-4-yl)ethynyl)piperidine-1-carbonyl)cyclohexyl)-1′-methyl-2″-oxodispiro[cyclohexane-1,2′-pyrrolidine-3′,3″-indoline]-5′-carboxamide]"
7,8,"CN1[C@@H](C(=O)NC23CCC(C(=O)N4CCC(C#Cc5cccc6c5CN(C5CCC(=O)NC5=O)C6=O)CC4)(CC2)CC3)[C@H](c2cccc(Cl)c2F)[C@]2(C(=O)Nc3cc(Cl)ccc32)C12CCCCC2 (stereo partly drawn) [Cpd. No. 10, (3′R,4′S,5′R)-6″-chloro-4′-(3-chloro-2-fluorophenyl)-N-(4-(4-((2-(2,6-dioxopiperidin-3-yl)-1-oxoisoindolin-4-yl)ethynyl)piperidine-1-carbonyl)bicyclo[2.2.2]octan-1-yl)-1 ′-methyl-2″-oxodispiro[cyclohexane-1,2′-pyrrolidine-3′,3″-indoline]-5′-carboxamide]"
8,0.3,"O=C1CCC(N2Cc3c(C#CC4CCN(C(=O)C56CC(NC(=O)[C@@H]7NC8(CCCCC8)[C@@]8(C(=O)Nc9cc(Cl)ccc98)[C@H]7c7cccc(Cl)c7F)(C5)C6)CC4)cccc3C2=O)C(=O)N1 (stereo partly drawn) [Cpd. No. 11, (3′R,4′S,5′R)-6″-chloro-4′-(3-chloro-2-fluorophenyl)-N-(3-(4-((2-(2,6-dioxopiperidin-3-yl)-1-oxoisoindolin-4-yl)ethynyl)piperidine-1-carbonyl)bicyclo[1.1.1]pentan-1-yl)-2″-oxodispiro[cyclohexane-1,2′-pyrrolidine-3′,3″-indoline]-5′-carboxamide]"
9,1.4,"O=C1CCC(N2Cc3c(C#CC4CCN(C(=O)[C@H]5C[C@H](NC(=O)[C@@H]6NC7(CCCCC7)[C@@]7(C(=O)Nc8cc(Cl)ccc87)[C@H]6c6cccc(Cl)c6F)C5)CC4)cccc3C2=O)C(=O)N1 (stereo partly drawn) [Cpd. No. 12, (3′R,4′S,5′R)-6″-chloro-4′-(3-chloro-2-fluorophenyl)-N-((1r,3R)-3-(4-((2-(2,6-dioxopiperidin-3-yl)-1-oxoisoindolin-4-yl)ethynyl)piperidine-1-carbonyl)cyclobutyl)-2″-oxodispiro[cyclohexane-1,2′-pyrrolidine-3′,3″-indoline]-5′-carboxamide]"
10,6,"CC1(C)CCC2(CC1)N[C@@H](C(=O)NC13CCC(C(=O)N4CCC(C#Cc5cccc6c5CN(C5CCC(=O)NC5=O)C6=O)CC4)(CC1)CC3)[C@H](c1cccc(Cl)c1F)[C@]21C(=O)Nc2cc(Cl)ccc21 (stereo partly drawn) [Cpd. No. 13, (3′R,4′S,5′R)-6″-chloro-4′-(3-chloro-2-fluorophenyl)-N-(4-(4-((2-(2,6-dioxopiperidin-3-yl)-1-oxoisoindolin-4-yl)ethynyl)piperidine-1-carbonyl)bicyclo[2.2.2]octan-1-yl)-4,4-dimethyl-2″-oxodispiro[cyclohexane-1,2′-pyrrolidine-3′,3″-indoline]-5′-]"
11,60,"CN(C(=O)[C@@H]1NC2(CCCCC2)[C@@]2(C(=O)Nc3cc(Cl)ccc32)[C@H]1c1cccc(Cl)c1F)[C@H]1CC[C@H](C(=O)N2CCC(C#Cc3cccc4c3CN(C3CCC(=O)NC3=O)C4=O)CC2)CC1 (stereo partly drawn) [Cpd. No. 15, (3′R,4′S,5′R)-6″-chloro-4′-(3-chloro-2-fluorophenyl)-N-((1r,4R)-4-(4-((2-(2,6-dioxopiperidin-3-yl)-1-oxoisoindolin-4-yl)ethynyl)piperidine-1-carbonyl)cyclohexyl)-N-methyl-2″-oxodispiro[cyclohexane-1,2′-pyrrolidine-3′,3″-indoline]-5′-carboxamide]"
12,> 100,"CN1[C@@H](C(=O)N(C)[C@H]2CC[C@H](C(=O)N3CCC(C#Cc4cccc5c4CN(C4CCC(=O)NC4=O)C5=O)CC3)CC2)[C@H](c2cccc(Cl)c2F)[C@]2(C(=O)Nc3cc(Cl)ccc32)C12CCCCC2 (stereo partly drawn) [Cpd. No. 16, (3′R,4′S,5′R)-6″-chloro-4′-(3-chloro-2-fluorophenyl)-N-((1r,4R)-4-(4-((2-(2,6-dioxopiperidin-3-yl)-1-oxoisoindolin-4-yl)ethynyl)piperidine-1-carbonyl)cyclohexyl)-N,1′-dimethyl-2″-oxodispiro[cyclohexane-1,2′-pyrrolidine-3′,3″-indoline]-5′-carboxamide]"
13,> 100,"CCN1[C@@H](C(=O)N2CCC(C(=O)N3CCC(C#Cc4cccc5c4CN(C4CCC(=O)NC4=O)C5=O)CC3)CC2)[C@H](c2cccc(Cl)c2F)[C@]2(C(=O)Nc3cc(Cl)ccc32)C12CCCCC2 (stereo partly drawn) [Cpd. No. 22, 3-(4-((1-(1-((3′R,4′S,5′R)-6″-chloro-4′-(3-chloro-2-fluorophenyl)-1′-ethyl-2″-oxodispiro[cyclohexane-1,2′-pyrrolidine-3′,3″-indoline]-5′-carbonyl)piperidine-4-carbonyl)piperidin-4-yl)ethynyl)-1-oxoisoindolin-2-yl)piperidine-2,6-dione]"
14,> 100,"O=C1CCC(N2Cc3c(C#CC4CCN(C(=O)C5CCN(C(=O)[C@@H]6NC7(CCCCC7)[C@@]7(C(=O)Nc8cc(Cl)ccc87)[C@H]6c6cccc(Cl)c6F)CC5)CC4)cccc3C2=O)C(=O)N1 (stereo partly drawn) [Cpd. No. 23, 3-(4-((1-(1-((3′R,4′S,5′R)-6″-chloro-4′-(3-chloro-2-fluorophenyl)-2″-oxodispiro[cyclohexane-1,2′-pyrrolidine-3′,3″-indoline]-5′-carbonyl)piperidine-4-carbonyl)piperidin-4-yl)ethynyl)-1-oxoisoindolin-2-yl)piperidine-2,6-dione]"
